According to patent US11485742B2, “2-azaspiro[3.4]octane derivatives as M4 agonists” (NOVARTIS AG, priority 2019, dated 2022):

Tests used:
[1] = target: T1, human cloned CHRM2 receptor (Homo sapiens, UniProt P08172); test: CHRM2 Ca++ Flux Assay (M2_CHO cells, agonist mode); assay type: cell-based; settings: M2 CHO cells; for EC50: agonist mode, geometric mean if tested more than once, read-out: M2 FDSS EC50; for Emax: Percent Activity (PA) measured to EC100 of Carbachol, read-out: M2 FDSS PA %
T1 construct: expressed in transfected cells; host or cells: CHO-K1 (M2_CHO)
T1 sequence (P08172 1-466): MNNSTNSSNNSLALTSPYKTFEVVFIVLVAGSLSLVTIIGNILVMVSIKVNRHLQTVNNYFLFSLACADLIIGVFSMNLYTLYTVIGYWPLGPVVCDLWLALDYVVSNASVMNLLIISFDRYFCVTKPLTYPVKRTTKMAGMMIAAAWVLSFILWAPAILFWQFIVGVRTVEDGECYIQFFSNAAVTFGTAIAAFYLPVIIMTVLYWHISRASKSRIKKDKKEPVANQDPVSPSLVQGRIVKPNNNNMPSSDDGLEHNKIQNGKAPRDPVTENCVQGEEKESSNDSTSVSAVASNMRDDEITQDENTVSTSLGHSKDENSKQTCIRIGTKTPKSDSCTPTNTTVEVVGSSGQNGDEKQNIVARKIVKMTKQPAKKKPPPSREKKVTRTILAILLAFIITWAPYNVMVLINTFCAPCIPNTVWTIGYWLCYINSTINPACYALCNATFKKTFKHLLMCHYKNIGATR
In short: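 CHO-K1 cells stably expressing human CHRM2 were plated overnight at 12K cells/well and loaded with Ca++ dye for 1–2 h. They were then held 60 minutes in HBSS −Ca/−Mg, 20 mM HEPES, 2.5 mM probenecid, 20 μM ATP. Agonist-mode Ca++ flux was read over 3 minutes. Four-parameter fits of triplicates gave percent activity relative to carbachol EC100.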

[2] = target: T2, Cloned human M1 receptor (CHRM1) (Homo sapiens, UniProt P11229); test: CHRM1 Ca++ Flux Assay (HEK293 M1 cells, agonist mode); assay type: cell-based; settings: for Emax: Percent Activity (PA), read-out: M1 FDSS PA %; for EC50: geometric mean if tested more than once, read-out: M1 FDSS EC50
T2 construct: expressed in transfected cells; host or cells: HEK293
T2 sequence (P11229 1-460): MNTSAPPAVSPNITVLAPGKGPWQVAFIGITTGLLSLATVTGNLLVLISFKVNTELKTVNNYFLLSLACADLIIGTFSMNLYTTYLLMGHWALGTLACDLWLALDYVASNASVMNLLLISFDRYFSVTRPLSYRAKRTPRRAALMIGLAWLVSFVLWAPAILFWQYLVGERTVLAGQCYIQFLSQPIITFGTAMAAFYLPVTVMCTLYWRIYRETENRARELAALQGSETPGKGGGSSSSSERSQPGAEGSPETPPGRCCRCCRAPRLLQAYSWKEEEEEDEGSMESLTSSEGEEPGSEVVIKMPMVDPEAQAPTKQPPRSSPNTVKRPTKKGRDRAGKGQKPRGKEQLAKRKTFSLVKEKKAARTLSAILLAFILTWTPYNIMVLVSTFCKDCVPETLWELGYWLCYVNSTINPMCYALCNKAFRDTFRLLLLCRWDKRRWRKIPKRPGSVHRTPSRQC
In short: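 HEK293 cells stably expressing human M1 were loaded with Ca++ dye, then given compounds (11-point dose, triplicate) in HBSS −Ca/−Mg, 20 mM HEPES. Ca++ flux was read over 3 min (agonist mode). Four-parameter curves were fitted, with activity as percent of carbachol EC100.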

Row | Structure (SMILES) | EC50 [1] [nM] | Emax [1] [%] | Emax [2] [%] | EC50 [2] [nM]
1 | Cc1nnc(COc2ccc(F)cc2C2CCN([C@@H]3COC4(C3)CN(c3nnco3)C4)CC2)o1 [Example 2F, (S)-7-(4-(5-fluoro-2-((5-methyl-1,3,4-oxadiazol-2-yl)methoxy)phenyl)piperidin-1-yl)-2-(1,3,4-oxadiazol-2-yl)-5-oxa-2-azaspiro[3.4]octane] | 113 | 67 | 103 | 61
2 | Fc1ccc(OCC2COC2)c(C2CCN([C@@H]3COC4(C3)CN(c3nnco3)C4)CC2)c1 [Example 2H, (S)-7-(4-(5-fluoro-2-(oxetan-3-ylmethoxy)phenyl)piperidin-1-yl)-2-(1,3,4-oxadiazol-2-yl)-5-oxa-2-azaspiro[3.4]octane] | 309 | 60 | 101 | 542
3 | Fc1ccc(OCC2(F)COC2)c(C2CCN([C@@H]3COC4(C3)CN(c3nnco3)C4)CC2)c1 [Example 2J, (S)-7-(4-(5-fluoro-2-((3-fluorooxetan-3-yl)methoxy)phenyl)piperidin-1-yl)-2-(1,3,4-oxadiazol-2-yl)-5-oxa-2-azaspiro[3.4]octane] | 214 | 62 | 103 | 411
4 | CC1(COc2ccc(F)cc2C2CCN([C@@H]3COC4(C3)CN(c3nnco3)C4)CC2)COC1 [Example 2K, (S)-7-(4-(5-fluoro-2-((3-methyloxetan-3-yl)methoxy)phenyl)piperidin-1-yl)-2-(1,3,4-oxadiazol-2-yl)-5-oxa-2-azaspiro[3.4]octane] | 498 | 47 | 97 | 1360
5 | Fc1ccc(OC2CC3(COC3)C2)c(C2CCN([C@@H]3COC4(C3)CN(c3nnco3)C4)CC2)c1 [Example 2L, (S)-7-(4-(2-((2-oxaspiro[3.3]heptan-6-yl)oxy)-5-fluorophenyl)piperidin-1-yl)-2-(1,3,4-oxadiazol-2-yl)-5-oxa-2-azaspiro[3.4]octane] | 1070 | 14 | 47 | 2220
6 | Fc1ccc(OC[C@H]2CCCO2)c(C2CCN([C@@H]3COC4(C3)CN(c3nnco3)C4)CC2)c1 [Example 2M, (S)-7-(4-(5-fluoro-2-(((R)-tetrahydrofuran-2-yl)methoxy)phenyl)piperidin-1-yl)-2-(1,3,4-oxadiazol-2-yl)-5-oxa-2-azaspiro[3.4]octane] | 2030 | 20 | 7 | 3570
7 | CCC1(COc2ccc(F)cc2C2CCN([C@@H]3COC4(C3)CN(c3nnco3)C4)CC2)COC1 [Example 2P, (S)-7-(4-(2-((3-ethyloxetan-3-yl)methoxy)-5-fluorophenyl)piperidin-1-yl)-2-(1,3,4-oxadiazol-2-yl)-5-oxa-2-azaspiro[3.4]octane] | 1070 | 36 | 71 | 2080

Molecules with a lower EC50 [1], results first:

Row | EC50 [1] [nM] | Emax [1] [%] | Emax [2] [%] | EC50 [2] [nM] | Structure (SMILES)
8 | 81 | 59 | 112 | 116 | Cc1nnc(COc2ccc(F)cc2C2CCN([C@@H]3COC4(C3)CN(c3nnco3)C4)CC2)s1 [Example 2E, (S)-7-(4-(5-fluoro-2-((5-methyl-1,3,4-thiadiazol-2-yl)methoxy)phenyl)piperidin-1-yl)-2-(1,3,4-oxadiazol-2-yl)-5-oxa-2-azaspiro[3.4]octane]
9 | 61 | 55 | 89 | 289 | Cc1cc(COc2ccc(F)cc2C2CCN([C@@H]3COC4(C3)CN(c3nnco3)C4)CC2)on1 [Example 2G, (S)-7-(4-(5-fluoro-2-((3-methylisoxazol-5-yl)methoxy)phenyl)piperidin-1-yl)-2-(1,3,4-oxadiazol-2-yl)-5-oxa-2-azaspiro[3.4]octane]
10 | 109 | 35 | 97 | 98 | Fc1ccc(OCc2ncccn2)c(C2CCN([C@@H]3COC4(C3)CN(c3nnco3)C4)CC2)c1 [Example 2I, (S)-7-(4-(5-fluoro-2-(pyrimidin-2-ylmethoxy)phenyl)piperidin-1-yl)-2-(1,3,4-oxadiazol-2-yl)-5-oxa-2-azaspiro[3.4]octane]
